Square brackets hold non-standard residues; d marks the D form. Peptide text beside a SMILES is read from it. Orn = NCCC[C@H](N)C(=O)O
Legend:
human erythrocytes = assay: Hemolytic activity; assay type: cell-based; conditions: 2% hematocrit, 1 h at 37 °C, ± SEM
Method: To determine the hemolytic activity of the peptides, the duplicate 96-well plates with samples added to 90 μL 2% hematocrit per well were incubated for one hour at 37 °C and centrifuged using a swing-out rotor at 200× g for 3 min. The supernatant was diluted 1:8 in analytical quality water in separate 96-well plates and after mixing, the absorbance of the suspension was determined at 405 nm.
(§1) The data obtained from spectrophotometric measurement of the plates following the lactate dehydrogenase (Malstat) assay were converted to percentage growth inhibition using the data analysis method described by Rautenbach et al.. The background was obtained from control wells in which the parasites were killed with 100 µM GS while total growth was from the wells that were not submitted to peptides. The background for the hemolysis evaluation was from wells in which the uninfected erythrocytes were lysed using 100 µM GS while growth control was from the wells with uninfected erythrocytes that received no peptides. The percentage COS-1 cell death (CellTiter Blue™ assay) was similarly calculated from absorbance values. All the dose–response assay data were evaluated using GraphPad Prism 4.03 (GraphPad Software, San Diego, CA, USA) followed by non-linear regression and sigmoidal curves were fitted (having variable slope and a constant difference of 100 between the top and bottom plateau). Following calculation of the 50% P. falciparum inhibitory concentration (IC50), 50% hemolytic concentration (HC50) and 50% lethal concentration (LC50) for COS-1 cells.

CQI P. falciparum D10 = assay: microbe, parasite or virus in culture; assay type: cell-based, Plasmodium falciparum; conditions: for IC50: 48 h, Malstat, ± SEM; for Selectivity Index IC50D10/IC50 (COS cells): second value of cell
Method: The antimalarial assays were carried out according to the method of Nkhoma et al.. Once the cultures reached a parasitemia of 5–15%, they were synchronized four days prior to the day of the assay as described above which allowed the cultures to recover from the stress caused by the D-sorbitol. On the day of the assay, the parasitemia was determined following observation by light microscopy after Giemsa staining of a thin blood smear from the culture. The cultures at young trophozoite stage were diluted to 2% parasitemia and 2% hematocrit by addition of fresh RPMI medium and uninfected erythrocytes. This culture suspension was distributed in 96-well culture plates at 90 µL/well. The peptides and CQ diluted in culture medium lacking albumax II were added to the cultures in triplicate at 10 µL/well to give a total volume of 100 µL/well. Peptide solvent and medium (10 µL/well) was used as sterility control and in growth control and 10 μL 1.0 mM GS was used as positive control. Assays were carried out in at least three biological repeats each consisting of three technical repeats to ascertain reproducibility.
For the activity determination against parasites, plates were incubated at 37 °C for 48 h under an atmosphere of 3% CO2, 4% O2 and 93% N2. The culture suspension was frozen away at −20 °C until determination of the residual lactate dehydrogenase activity of the parasites by the Malstat assay, as adapted from Gomez et al..
For the Malstat assay, the plates were transferred to −80 °C for 1 h following overnight storage at −20 °C to ensure that all the suspensions in each well of the 96-well plate were frozen. The plates were then thawed at room temperature. The Malstat reagent consisted of 200 μL Triton X-100, 2 g L-lactic acid (substrate), 0.66 g Tris-HCl buffer and 0.011 g of 3-acetylpyridine adenine dinucleotide (APAD) (coenzyme for parasite lactate dehydrogenase) in 100 mL analytical quality water set to a pH of 9.0 [93]. The lactate dehydrogenase reaction was initiated by addition of a second solution, NBT/PES solution composed of 1.96 mM nitro blue tetrazolium (NBT) and 0.24 mM phenazine ethosulfate (PES) which was always protected from light. A 15 µL aliquot of the thawed and properly mixed suspension from the assay plates was added to 100 µL of the Malstat reagent, followed by addition of 25 µL of the NBT/PES solution. The reaction mixtures were then incubated at room temperature in the dark for 30 min followed by spectrophotometric measurement of the absorbance of the reduced APAD at 620 nm using a Model 680 Microplate reader from BioRad.
as §1

P. falciparum D10 [1] = assay: Parasite stage distribution, Giemsa staining and light microscopy; assay type: cell-based, Plasmodium falciparum; conditions: 200 nM, synchronized trophozoite stage cultures, 0 to 48 h
Method: For light microscopy, following addition of TpcC, aliquots were collected from the cultures at different time-points for preparation of Giemsa-stained blood smears. The assay was carried out in duplicate and lactate dehydrogenase activity of the residual cultures was determined after 48 h.

P. falciparum D10 [2] = assay: Super-resolution structured illumination fluorescence microscopy (SR-SIM) of parasite morphology; assay type: cell-based, Plasmodium falciparum
Method: Prior to staining for fluorescence microscopy, the cultures were centrifuged at 300× g for 4 min, then the supernatant was discarded and cells were suspended to the same percentage hematocrit in a solution made of one part analytical quality water and three parts sterile PBS (pH 7.2–7.3) in order to reduce solute concentration.
The fluorescence microscopy involved staining suspended cultures (TpcC treated and untreated) prepared as described above (except for not being synchronized within the last 48 h of culturing) with combinations of trypan blue (red fluorescence) and either SYTO® 9 green-fluorescent nucleic acid stain or LipidTOX™ neutral lipid stain (green fluorescence). To view the neutral lipids, the cells were stained with LipidTOX™ (stock solution dilution at 1:200), incubated for 30 min at room temperature before staining with trypan blue at final concentration of 0.002% v/v. For nucleic acid staining, the cells were stained with SYTO® 9 (stock solution dilution at 1:1000) and trypan blue at final concentration of 0.002% v/v and incubated at room temperature for 15 min. Super-resolution structured illumination (SR-SIM) fluorescence microscopy was carried out as follows: thin ([…]) z-stacks of high-resolution image frames were accumulated in 5 rotations using an alpha Plan-Apochromat 100×/1.46 oil DIC M27 ELYRA objective, employing an ELYRA S.1 (Carl Zeiss Microimaging) microscope equipped with a 488 nm laser (100 mW), 561 nm laser (100 mW) and Andor EM-CCD camera (iXon DU 885). Images were […] using ZEN software (black edition, 2011, version 7.04.287) based on a structured illumination algorithm. Image projections and animations were carried out on reconstructed super-resolution images in ZEN.

| SMILES | HC50, Erythrocytes (human erythrocytes) | IC50 (CQI P. falciparum D10) [nM] | Selectivity Index IC50D10/IC50 (COS cells) (CQI P. falciparum D10) | effect on parasite stage progression (P. falciparum D10 [1]) | increase in activity towards the CQI D10 strain (CQI P. falciparum D10; compared with 3D7) | permeabilization or lysis of parasite and erythrocyte membranes (trypan blue leakage) (P. falciparum D10 [2]; lethal concentration of 200 nM) | chromatin morphology (SYTO9 nuclear staining) (P. falciparum D10 [2]; post 6 h treatment) | neutral lipid structures (LipidTOX stain) (P. falciparum D10 [2]; trophozoite stage cultures, after 5 h in culture) |
| --- | --- | --- | --- | --- | --- | --- | --- | --- |
| CC(C)C[C@@H]1NC(=O)[C@H](CCCN)NC(=O)[C@H](C(C)C)NC(=O)[C@H](Cc2ccccc2)NC(=O)[C@H](CCC(N)=O)NC(=O)[C@H](CC(N)=O)NC(=O)[C@@H](Cc2ccccc2)NC(=O)[C@H](Cc2ccccc2)NC(=O)[C@@H]2CCCN2C(=O)[C@@H](Cc2ccccc2)NC1=O [PhcA, phenycidine A] (cyclo(FV[Orn]L[dF]PF[dF]NQ)) | 7.1 ± 1.6 (8) μM | 52 ± 17 | 154 | – | – | – | – | – |
| CC(C)C[C@@H]1NC(=O)[C@H](CCCN)NC(=O)[C@H](C(C)C)NC(=O)[C@H](Cc2c[nH]c3ccccc23)NC(=O)[C@H](CCC(N)=O)NC(=O)[C@H](CC(N)=O)NC(=O)[C@@H](Cc2c[nH]c3ccccc23)NC(=O)[C@H](Cc2c[nH]c3ccccc23)NC(=O)[C@@H]2CCCN2C(=O)[C@@H](Cc2ccccc2)NC1=O [TpcC, tryptocidine C] (cyclo(L[dF]PW[dW]NQWV[Orn])) | 9.1 ± 1.5 (4) μM | 42 ± 17 | 238 | delay in the occurrence of the schizont stage | about a three-fold increase in activity | none of the parasite membranes or erythrocyte membrane was permeabilized or lysed | abnormality in the packing or compactness of the chromatin | the lipid structures were distorted and diffused |
| CC(C)C[C@@H]1NC(=O)[C@H](CCCN)NC(=O)[C@H](C(C)C)NC(=O)[C@H](Cc2ccc(O)cc2)NC(=O)[C@H](CCC(N)=O)NC(=O)[C@H](CC(N)=O)NC(=O)[C@@H](Cc2ccccc2)NC(=O)[C@H](Cc2ccccc2)NC(=O)[C@@H]2CCCN2C(=O)[C@@H](Cc2ccccc2)NC1=O [TrcA, tyrocidine A] (cyclo(V[Orn]L[dF]PF[dF]NQY)) | – | – | 51 | – | – | – | – | – |
